According to US8846695B2, “Treatment for diabetes in patients with inadequate glycemic control despite metformin therapy comprising a DPP-IV inhibitor” (Boehringer Ingelheim International GmbH, priority 2009, dated 2014):

Assays:
[1] = Thorough QT study, single dose, healthy female and male subjects (QTcI); assay type: in vivo, human; conditions: therapeutic (5 mg) and supratherapeutic (100 mg)
Experimental: A thorough QT study of BI 1356, a potent and selective dipeptidyl peptidase-4 inhibitor, was performed in healthy female and male subjects, using 5 mg (therapeutic dose) and 100 mg. The study was a randomised, single-dose, placebo-controlled, double-blind, four-way crossover study with open-label moxifloxacin (400 mg) as positive control. Triplicate 12-lead electrocardiograms (ECGs) of 10 seconds' duration were recorded for all subjects pre-dose and at various time points over a 24-h period after each treatment. The primary parameter was the subject-specific heart rate corrected QT interval (QTcI).

[2] = Adverse events and hypoglycaemia in the 12-week add-on to metformin study; assay type: in vivo, human; conditions: 1, 5 or 10 mg qd with metformin, 12 weeks
Text: In total, 106 patients (43.1%) experienced adverse events (AEs) with similar incidences across all treatments. Most frequently reported episodes were nasopharyngitis (7.5%), diarrhoea (3.3%), and nausea (3.0%). […] Ten patients (3.7%) experienced serious AEs but none of these events were considered drug-related.
The addition of BI 1356 to MET in patients with T2DM inadequately controlled on MET alone achieved clinically relevant and statistically significant reductions in HbA1c.

[3] = human, in vivo
[4] = 12-week randomized double-blind add-on to metformin study: HbA1c and FPG; design: placebo corrected mean reduction in HbA1c: dose or concentration left out as unconfirmed
Experimental: Effects were compared to add-on of placebo (PBO) or of open label glimepiride (GLIM; 1 to 3 mg qd) in a 12-week randomized, double-blind study.
The primary endpoint was change from baseline in HbA1c, adjusted for prior antidiabetic medication.

[5] = 5 mg daily, 12 weeks, add-on to metformin

Row | Structure (SMILES) | prolongation of the QT interval [1] | drug-related hypoglycaemia [2] | form and path of excretion [3] | percentage of patients achieving HbA1c lowering of ≧0.5% from baseline [4, 5] [%] | percentage of patients achieving HbA1c lowering of ≧1.0% from baseline [4, 5] [%] | percentage of patients achieving a HbA1c value [4, 5] [%] | time at which maximum glucose-lowering effects are reached ([4]; 1, 5 and 10 mg once daily added to metformin, plateau thereafter) [weeks] | placebo corrected mean reduction in HbA1c ([4]; Week 12, add-on to metformin, n=64) [%]
1 | CC#CCn1c(N2CCC[C@@H](N)C2)nc2c1c(=O)n(Cc1nc(C)c3ccccc3n1)c(=O)n2C [BI 1356] | did not prolong the QT interval | no case of hypoglycaemia was reported | primarily excreted unchanged via the bile | 53.2 | 27.4 | 14.5 | 8 | –
2 | CCC1=C(C)CN(C(=O)NCCc2ccc(S(=O)(=O)NC(=O)N[C@H]3CC[C@H](C)CC3)cc2)C1=O [GLIM, glimepiride, reference compound] | – | – | – | – | – | – | – | −0.90
